From ChEMBL document CHEMBL1932938, “From COX-2 inhibitor nimesulide to potent anti-cancer agent: synthesis, in vitro, in vivo and pharmacokinetic evaluation” (Eur J Med Chem, 2012) come the findings set out here.

Molecules are shown by their SMILES.

The subject of series [1] is SK-BR-3. Put plainly: cells. The note with it: Homo sapiens, SK-BR-3, 48 h.
Description: Cytotoxicity against human SK-BR-3 cells after 48 hrs by MTT assay
The nature of series [2]: Solubility of the compound. Format: physicochemical.

`Cc1ccc(C)c(COc2cc(NC(=O)Cc3ccccc3)ccc2N(C)S(C)(=O)=O)c1` had an IC50 in series [1] of more than 100 µM.

As to `CCCCCCCCCCCCCCCC(=O)Nc1ccc(N(C)S(C)(=O)=O)c(OCc2cc(C)ccc2C)c1`, the solubility entry in series [2] is “Insoluble”. In series [1], `COc1ccc(CC(=O)Nc2ccc(N(C)S(C)(=O)=O)c(OCc3cc(C)ccc3C)c2)cc1OC` came in with an IC50 of 34 µM.

One may read the IC50 as the concentration needed to halve the response being measured. High values mean weaker potency, low ones greater potency.
